Test results from patent publication US10975048B2, “Composition of 1,3,4-selenadiazole containing compounds with pharmacological activity” (HANGZHOU JENNIFER BIOTECH CO., LTD, priority 2015, dated 2021).
Read-outs that look alike come from different tables or passages of the source.

What was measured:
GDH = GDH (Homo sapiens, UniProt P00367); assay: GDH inhibition IC50; format: biochemical
A 549 lung cancer cells = assay: Inhibition of A549 lung cancer cells; format: cell-based; conditions: for A549 Max-INH: maximal inhibition; for IC50: Homo sapiens
Text: (§1) The molecular structure of specific compounds is described as follows: […]

KGA = molecular target: T1, KGA (Homo sapiens, UniProt O94925); assay: KGA inhibition IC50; format: biochemical
T1 sequence (O94925 55-669): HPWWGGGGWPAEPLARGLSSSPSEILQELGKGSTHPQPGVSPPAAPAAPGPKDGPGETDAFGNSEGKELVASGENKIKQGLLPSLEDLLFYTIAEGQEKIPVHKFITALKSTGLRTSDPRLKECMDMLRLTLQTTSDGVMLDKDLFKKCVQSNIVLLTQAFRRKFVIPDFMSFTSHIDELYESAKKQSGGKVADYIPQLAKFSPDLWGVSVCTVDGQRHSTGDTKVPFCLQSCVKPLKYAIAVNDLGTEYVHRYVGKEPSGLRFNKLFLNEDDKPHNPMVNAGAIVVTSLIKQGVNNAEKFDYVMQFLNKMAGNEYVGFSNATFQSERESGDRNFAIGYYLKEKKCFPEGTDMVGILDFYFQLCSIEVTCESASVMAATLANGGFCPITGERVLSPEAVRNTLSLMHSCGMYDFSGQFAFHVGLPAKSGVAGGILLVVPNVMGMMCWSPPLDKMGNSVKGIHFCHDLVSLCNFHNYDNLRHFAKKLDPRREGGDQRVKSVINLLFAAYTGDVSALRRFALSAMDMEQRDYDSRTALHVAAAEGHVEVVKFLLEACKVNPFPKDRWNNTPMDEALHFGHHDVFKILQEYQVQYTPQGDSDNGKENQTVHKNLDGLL
Text: as §1

[1] = A549 cells, read-out: A549 IC50

GDH, sequence (P00367 54-558): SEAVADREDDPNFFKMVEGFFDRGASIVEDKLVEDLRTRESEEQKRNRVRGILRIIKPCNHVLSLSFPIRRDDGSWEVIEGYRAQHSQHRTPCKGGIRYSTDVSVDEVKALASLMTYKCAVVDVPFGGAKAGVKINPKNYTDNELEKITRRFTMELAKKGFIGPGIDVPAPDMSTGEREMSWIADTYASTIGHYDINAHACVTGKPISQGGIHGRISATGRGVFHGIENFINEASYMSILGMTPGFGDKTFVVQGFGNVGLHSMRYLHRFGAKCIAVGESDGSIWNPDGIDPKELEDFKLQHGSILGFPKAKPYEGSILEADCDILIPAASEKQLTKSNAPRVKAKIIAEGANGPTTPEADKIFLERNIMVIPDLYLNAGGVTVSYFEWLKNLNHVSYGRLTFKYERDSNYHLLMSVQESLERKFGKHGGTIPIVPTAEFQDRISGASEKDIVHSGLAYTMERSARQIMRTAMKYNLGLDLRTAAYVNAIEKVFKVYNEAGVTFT

melting point [°C] | IC50 (A 549 lung cancer cells; A549, read-out: A549 IC50) [nM] | SMILES | IC50 (GDH) [µM] | A549 Max-INH (A 549 lung cancer cells; A549 cells) [%] | IC50 (A 549 lung cancer cells; [1]) [nM] | IC50 (KGA) [nM] | IC50 (KGA; read-out: KGA IC50) [nM]
130 to 132 |  | c1ccc(Nc2nnc(Cc3nnc(Nc4ccccc4)[se]3)[se]2)cc1 |  |  |  |  | 
160 to 161 |  | c1ccc(Nc2nnc(CCc3nnc(Nc4ccccc4)[se]3)[se]2)cc1 |  |  |  |  | 
198 to 201 |  | c1ccc(Nc2nnc(CCCc3nnc(Nc4ccccc4)[se]3)[se]2)cc1 |  |  |  |  | 
165 to 171 |  | c1ccc(Nc2nnc(CCCCCc3nnc(Nc4ccccc4)[se]3)[se]2)cc1 |  |  |  |  | 
109 to 110 |  | ClCCc1nnc(Nc2ccccc2)[se]1 |  |  |  |  | 
109 to 110 |  | ClCCc1nnc(NCc2ccccc2)[se]1 |  |  |  |  | 
109 to 110 |  | ClCCc1nnc(NCCc2ccccc2)[se]1 |  |  |  |  | 
109 to 110 |  | N=C(N)NCc1nnc(Nc2ccccc2)[se]1 |  |  |  |  | 
172 to 174 |  | c1ccc(Nc2nnc(CCSCCc3nnc(Nc4ccccc4)[se]3)[se]2)cc1 |  |  |  |  | 
 |  | Cn1cc(CC(=O)Nc2nnc(CCSCCc3nnc(N)[se]3)[se]2)c2ccccc21 | > 10 | 84 | 2050 | 110 | 
 |  | Cn1cc(CC(=O)Nc2nnc(CCSCCc3nnc(N)s3)s2)c2ccccc21 | > 10 | 55 | 9700 |  | 140
 |  | Cn1cc(CC(=O)Nc2nnc(CCSCCc3nnc(NC(=O)Cc4cn(C)c5ccccc45)[se]3)[se]2)c2ccccc21 | > 10 | 90 | 160 |  | 27
 |  | Cn1cc(CC(=O)Nc2nnc(CCSCCc3nnc(NC(=O)Cc4cn(C)c5ccccc45)s3)s2)c2ccccc21 | > 10 | 80 | 820 |  | 280
 |  | Cn1ccc(CC(=O)Nc2nnc(CCSCCc3nnc(N)[se]3)[se]2)c1 | > 10 | 40 | > 10000 | 210 | 
 |  | Cn1ccc(CC(=O)Nc2nnc(CCSCCc3nnc(N)s3)s2)c1 | > 10 | 0 | > 10000 |  | 570
 |  | Cn1ccc(CC(=O)Nc2nnc(CCSCCc3nnc(NC(=O)Cc4ccn(C)c4)[se]3)[se]2)c1 | > 10 | 91 | 3100 |  | 60
 |  | Cn1ccc(CC(=O)Nc2nnc(CCSCCc3nnc(NC(=O)Cc4ccn(C)c4)s3)s2)c1 | > 10 | 80 | 6500 |  | 130
 |  | Nc1nnc(CCSCCc2nnc(NC(=O)Cc3ccccc3)[se]2)[se]1 | > 10 | 62 | 6300 | 1400 | 
 |  | O=C(Cc1ccccc1)Nc1nnc(CCSCCc2nnc(NC(=O)Cc3ccccc3)[se]2)[se]1 | > 10 | 66 | 300 |  | 60
 |  | O=C(Cc1ccccc1)Nc1nnc(CCSCCc2nnc(NC(=O)Cc3ccccc3)s2)s1 |  | 75 | 870 |  | 
 |  | Nc1nnc(CCSCCc2nnc(NC(=O)C34CC5CC(CC(C5)C3)C4)[se]2)[se]1 | > 10 | 17 | > 10000 | 4000 | 
 |  | O=C(Nc1nnc(CCSCCc2nnc(NC(=O)C34CC5CC(CC(C5)C3)C4)[se]2)[se]1)C12CC3CC(CC(C3)C1)C2 | > 10 | 17 | > 10000 | 1900 | 
 |  | O=C(Cc1cccc(OC(F)(F)F)c1)Nc1ccc(CCCCc2nnc(NC(=O)Cc3ccccn3)[se]2)nn1 | > 10 | 77 | 17 |  | 1
 | 40 | O=C(Cc1cccc(OC(F)(F)F)c1)Nc1ccc(CCCCc2nnc(NC(=O)Cc3ccccn3)s2)nn1 | > 10 | 70 |  |  | 
 |  | Cn1cc(CC(=O)Nc2nnc(CCCCc3ccc(NC(=O)Cc4cccc(OC(F)(F)F)c4)nn3)[se]2)c2ccccc21 | > 10 | 90 | 17 |  | 1
 |  | COc1ccc2c(c1)c(CC(=O)Nc1nnc(CCCCc3ccc(NC(=O)Cc4cccc(OC(F)(F)F)c4)nn3)[se]1)cn2C | > 10 | 90 | 10 |  | 5
